Results as given in the NIST ThermoML archive (doi:10.1016/j.tca.2015.10.014).

Conditions: Crystal, Calculated from knudsen effusion weight loss

[Br-].[Br-].[Pb+2] [lead(II) bromide]
Conditions	vapor or sublimation pressure [kPa]
532.3 K	7e-06
533 K	8e-06
533.1 K	8e-06
553.2 K	3.6e-05
553.7 K	2.6e-05
553.9 K	2.7e-05
571.5 K	6.1e-05
572.5 K	7.8e-05
573.7 K	7.5e-05
590.8 K	0.000233
591.9 K	0.000178
592.6 K	0.0002
611.3 K	0.000418
611.5 K	0.000573
612.9 K	0.000512
632.7 K	0.000886
633.5 K	0.001153
633.9 K	0.001334
